Laboratory results reported in patent US8067582B2 (Bristol-Myers Squibb Company, priority 2007, dated 2011).
Like-named read-outs stand apart in the source and are kept apart here.

Tests used:
androgen receptor (AR) = biological target: T1, androgen receptor (AR) (Homo sapiens, UniProt P10275); test: MDA-MB-453 Androgen Receptor Transactivation Assay (PSA-Luc reporter, 3 nM DHT); type: cell-based; details: MDA-MB-453 cells, antagonism in presence of 3 nM DHT, 48 hour incubation
T1 sequence (P10275 1-920): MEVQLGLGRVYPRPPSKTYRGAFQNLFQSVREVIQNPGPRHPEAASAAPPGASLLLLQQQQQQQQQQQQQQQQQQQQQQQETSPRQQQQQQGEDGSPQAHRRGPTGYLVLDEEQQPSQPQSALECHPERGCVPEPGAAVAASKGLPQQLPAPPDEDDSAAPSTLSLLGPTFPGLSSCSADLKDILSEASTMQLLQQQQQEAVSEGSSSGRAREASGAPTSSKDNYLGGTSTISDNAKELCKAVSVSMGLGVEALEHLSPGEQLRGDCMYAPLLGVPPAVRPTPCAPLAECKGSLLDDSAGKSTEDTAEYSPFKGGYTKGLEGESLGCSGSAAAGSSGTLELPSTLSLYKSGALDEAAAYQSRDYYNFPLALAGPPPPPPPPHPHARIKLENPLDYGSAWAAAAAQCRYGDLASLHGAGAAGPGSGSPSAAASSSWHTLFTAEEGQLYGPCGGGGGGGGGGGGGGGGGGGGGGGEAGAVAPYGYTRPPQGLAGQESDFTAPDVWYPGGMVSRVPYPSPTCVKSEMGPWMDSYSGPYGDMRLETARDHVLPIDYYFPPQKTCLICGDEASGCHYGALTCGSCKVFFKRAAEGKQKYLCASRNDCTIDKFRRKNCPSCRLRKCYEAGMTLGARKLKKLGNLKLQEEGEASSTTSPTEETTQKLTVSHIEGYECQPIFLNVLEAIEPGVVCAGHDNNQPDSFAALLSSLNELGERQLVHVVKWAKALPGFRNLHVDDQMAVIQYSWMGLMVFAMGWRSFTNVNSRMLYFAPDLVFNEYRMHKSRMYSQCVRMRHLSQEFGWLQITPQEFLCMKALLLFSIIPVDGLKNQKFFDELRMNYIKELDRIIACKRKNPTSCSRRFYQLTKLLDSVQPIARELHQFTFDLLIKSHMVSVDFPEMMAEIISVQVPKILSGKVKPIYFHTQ
Source text: Compounds can be tested in a cell based transactivation assay used to measure the antagonism of androgen receptor (AR) transcriptional activity. The transactivation assay provides a means of identifying antagonists that inhibit the effects of the native hormone dihydrotestosterone (DHT). […] The pGL3 PSA-Luc reporter plasmid is comprised of the cDNA for the firefly luciferase gene and the upstream promoter sequences containing the androgen response elements (AREs) of the prostate specific antigen (PSA). This plasmid functions as a reporter for the transcription-modulating activity of the AR. In order to detect antagonists, the transactivation assay is conducted in the presence of constant concentration of the natural AR hormone (DHT) to induce a defined reporter signal. Addition of increasing concentrations of the suspected antagonist will decrease the reporter signal (luciferase activity).
MDA-MB-453 and 22 RV1 cells were maintained in DMEM (Cellgro, Cat. #10-014-CM) or RPMI 1640 (Gibco Cat. #11875-085) respectively and supplemented with 10% FBS (Invitrogen/GIBCO Life Science). Cells were bulk transfected in flasks with 1.3 ug/ml pGL3 PSA-Luc plasmid by using the Lipofectamine 2000 Reagent (Invitrogen, Cat. #11668-019) and serum-free Opti-MEM I media (Invitrogen, Cat #31985-070) according to the manufacturer's optimized conditions. Transfection was conducted at 37° C. with 5% CO2 for 16-18 hours. Following transfection, cells are washed, treated with trypsin, counted, and seeded in a 96-well plate at 30,000 cells per well in DMEM containing 10% Charcoal/Dextran Treated Fetal Bovine Serum (Gibco Cat. #11054-020) for MDA-MB-453 cells or RPMI 1640 (Gibco Cat. #110835) containing 10% FBS (Invitrogen/GIBCO Life Science) for 22 RV1 cells.
Following transfection, cells were incubated in the absence (blank) or presence (control) of 3 nM DHT (Sigma, Cat. #A-8380) and in the presence or absence of the standard antiandrogen bicalutamide or test compounds ranging in concentrations from 10^−10 to 10^−5M. Duplicates were used for each sample. The compound dilutions were performed by the Tecan Genesis (Tecan, Triangle Park, N.C.). After a 48 hour incubation, luciferase activity was measured using the Steady-Glo Luciferase Assay System (Promega, Cat. #E2550) according to manufacturer's specifications and luminescence was measured on a Packard TopCount (PerkinElmer). For each luciferase sample reading, the percent control (in absence of compounds) was calculated as: % Control=100×[averagesample−averageblank]/[averagecontrol−averageblank] Data was plotted and the IC50 value was defined as the concentration of compound that inhibited 50% of the luciferase activity for the controls.
Compounds described herein were tested in the AR transactivation assay described immediately above, using MDA-MB-453 cells.

[1] = system: immature castrated male rats; test: Immature Rat Prostate Weight (IRPW) Assay; type: in vivo, rat (Sprague-Dawley); details: for EC50 (increase in organ weight, VP and SV): dosing for 3 days
[2] = Rattus norvegicus, po, 96 h, read-out: IRPW SV/FB (% control)

## C[C@]12O[C@@]3(CCO[C@H]4[C@@H]3[C@@H]1C(=O)N4c1ccc(C#N)c(C(F)(F)F)c1)C[C@H]2O (single isomer, unassigned) [Example 1]
Androgen receptor (AR)
  IC50: 177 nM
[1]; [2]
  response vs control in vivo at 5 mg/kg: 54%

## C[C@@]12C[C@H](O)[C@]3(CCO[C@H]4[C@@H]3[C@@H]1C(=O)N4c1ccc(C#N)c(C(F)(F)F)c1)O2 (single isomer, unassigned) [Example 3]
Androgen receptor (AR)
  IC50: 175 nM
[1]; [2]
  response vs control in vivo at 3 mg/kg: 41%

## C[C@@]12C[C@@H](O)[C@]3(CCO[C@H]4[C@@H]3[C@@H]1C(=O)N4c1ccc(C#N)c(C(F)(F)F)c1)O2 [Example 6, 4-((1R,2R,4R,5S,8S,12R)-2-hydroxy-4-methyl-6-oxo-9,13-dioxa-7-azatetracyclo[6.3.1.1^1,4.0^5,12]tridec-7-yl)-2-(trifluoromethyl)benzonitrile]
Androgen receptor (AR)
  IC50: 281 nM
[1]; [2]
  response vs control in vivo at 3 mg/kg: 37%

## COC(=O)N[C@@H]1C[C@]23CCO[C@@H]4[C@H]2[C@@H](C(=O)N4c2ccc(C#N)c(C(F)(F)F)c2)[C@@]1(C)O3 [Example 14, Methyl ((1S,3R,4R,5R,8R,12S)-7-(4-cyano-3-(trifluoromethyl)phenyl)-4-methyl-6-oxo-9,13-dioxa-7-azatetracyclo[6.3.1.1^1,4.0^5,12]tridec-3-yl)carbamate]
Androgen receptor (AR)
  IC50: 185 nM
[1]; [2]
  response vs control in vivo at 3 mg/kg: 35%

## CO/N=C1\C[C@@]2(C)O[C@@]13CCO[C@H]1[C@@H]3[C@@H]2C(=O)N1c1ccc(C#N)c(C(F)(F)F)c1 [Example 30, 4-((1R,2E,4R,5S,8S,12R)-2-(methoxyimino)-4-methyl-6-oxo-9,13-dioxa-7-azatetracyclo[6.3.1.1^1,4.0^5,12]tridec-7-yl)-2-(trifluoromethyl)benzonitrile]
Androgen receptor (AR)
  IC50: 31 nM
[1]; [2]
  response vs control in vivo at 3 mg/kg: 37%

## C[C@@]12CC[C@]3(CCO[C@H]4[C@@H]3[C@@H]1C(=O)N4c1ccc(C#N)c(C(F)(F)F)c1)O2 [Example 50, 4-((1R,4R,5S,8S,12R)-4-methyl-6-oxo-9,13-dioxa-7-azatetracyclo[6.3.1.1^1,4.0^5,12]tridec-7-yl)-2-(trifluoromethyl)benzonitrile]
Androgen receptor (AR)
  IC50: 42 nM
[1]; [2]
  response vs control in vivo at 3 mg/kg: 46%

## C[C@]12O[C@@]3(CCO[C@H]4[C@@H]3[C@@H]1C(=O)N4c1ccc(Cl)c(F)c1)C[C@H]2O [Example 138, (1S,3R,4S,5S,8S,12R)-7-(4-chloro-3-fluorophenyl)-3-hydroxy-4-methyl-9,13-dioxa-7-azatetracyclo[6.3.1.1^1,4.0^5,12]tridecan-6-one]
Androgen receptor (AR); read-out: IC50
  IC50: 6050 nM

## Cc1c(N2C(=O)[C@H]3[C@H]4[C@@H]2OCC[C@]42C[C@@H](O)[C@@]3(C)O2)ccc(C#N)c1C(F)(F)F [Example 142, 4-((1S,3R,4S,5S,8S,12R)-3-hydroxy-4-methyl-6-oxo-9,13-dioxa-7-azatetracyclo[6.3.1.1^1,4.0^5,12]tridec-7-yl)-3-methyl-2-(trifluoromethyl)benzonitrile]
Androgen receptor (AR)
  IC50: 950 nM

## C#Cc1cc(N2C(=O)[C@H]3[C@H]4[C@@H]2OCC[C@]42C[C@@H](O)[C@@]3(C)O2)ccc1Cl [Example 145, (1S,3R,4S,5S,8S,12R)-7-(4-chloro-3-ethynylphenyl)-3-hydroxy-4-methyl-9,13-dioxa-7-azatetracyclo[6.3.1.1^1,4.0^5,12]tridecan-6-one]
Androgen receptor (AR); read-out: IC50
  IC50: 1720 nM

## C[C@]12O[C@@]3(CCO[C@H]4[C@@H]3[C@@H]1C(=O)N4c1cc(Cl)cc(Cl)c1)C[C@H]2O [Example 149, (1S,3R,4S,5S,8S,12R)-7-(3,5-dichlorophenyl)-3-hydroxy-4-methyl-9,13-dioxa-7-azatetracyclo[6.3.1.1^1,4.0^5,12]tridecan-6-one]
Androgen receptor (AR); read-out: IC50
  IC50: 1100 nM

## C[C@@]12C[C@H](NC(=O)OCCO)[C@]3(CCO[C@H]4[C@@H]3[C@@H]1C(=O)N4c1ccc(C#N)c(C(F)(F)F)c1)O2 [Example 162, 2-Hydroxyethyl ((1R,2S,4R,5S,8S,12R)-7-(4-cyano-3-(trifluoromethyl)phenyl)-4-methyl-6-oxo-9,13-dioxa-7-azatetracyclo[6.3.1.1^1,4.0^5,12]tridec-2-yl)carbamate]
Androgen receptor (AR)
  IC50: 1960 nM

## CCS(=O)(=O)N[C@H]1C[C@@]2(C)O[C@@]13CCO[C@H]1[C@@H]3[C@@H]2C(=O)N1c1ccc(C#N)c(C(F)(F)F)c1F [Example 190, N-((1R,2S,4R,5S,8S,12R)-7-(4-Cyano-2-fluoro-3-(trifluoromethyl)phenyl)-4-methyl-6-oxo-9,13-dioxa-7-azatetracyclo[6.3.1.1^1,4.0^5,12]tridec-2-yl)ethanesulfonamide]
Androgen receptor (AR)
  IC50: 2270 nM

## C[C@@]12C[C@@H](NS(=O)(=O)C3CC3)[C@]3(CCO[C@H]4[C@@H]3[C@@H]1C(=O)N4c1ccc(C#N)c(C(F)(F)F)c1)O2 [Example 196, N-((1R,2R,4R,5S,8S,12R)-7-(4-Cyano-3-(trifluoromethyl)phenyl)-4-methyl-6-oxo-9,13-dioxa-7-azatetracyclo[6.3.1.1^1,4.0^5,12]tridec-2-yl)cyclopropanesulfonamide]
Androgen receptor (AR)
  IC50: 46 nM

## CCC(=O)N[C@H]1C[C@@]2(C)O[C@@]13CCO[C@H]1[C@@H]3[C@@H]2C(=O)N1c1ccc(C#N)c(Cl)c1 [Example 214, N-((1R,2S,4R,5S,8S,12R)-7-(3-chloro-4-cyanophenyl)-4-methyl-6-oxo-9,13-dioxa-7-azatetracyclo[6.3.1.1^1,4.0^5,12]tridec-2-yl)propanamide]
Androgen receptor (AR)
  IC50: 5650 nM

## CCS(=O)(=O)N[C@H]1C[C@@]23CCO[C@H]4[C@@H]2[C@H](C(=O)N4c2ccc(C#N)c(C(F)(F)F)c2)[C@]1(C)O3 [Example 222, N-((1R,3S,4S,5S,8S,12R)-7-(4-cyano-3-(trifluoromethyl)phenyl)-4-methyl-6-oxo-9,13-dioxa-7-azatetracyclo[6.3.1.1^1,4.0^5,12]tridec-3-yl)ethanesulfonamide]
Androgen receptor (AR)
  IC50: 58 nM

## C[C@]12C[C@@H](O)[C@@]3(CCO[C@@H]4[C@H]3[C@H]1C(=O)N4c1ccc(C#N)c(Br)c1)O2 [Example 240, 2-Bromo-4-((1S,2R,4S,5R,8R,12S)-2-hydroxy-4-methyl-6-oxo-9,13-dioxa-7-azatetracyclo[6.3.1.1^1,4.0^5,12]tridec-7-yl)benzonitrile]
Androgen receptor (AR); read-out: IC50
  IC50: 6380 nM

## C[C@]12CC[C@H]3[C@@H](CCC4=CC(=O)CC[C@@]43C)[C@@H]1CC[C@@H]2O [T, testosterone, reference compound]
[1]; immature castrated rats
  EC50 (increase in organ weight, VP and SV): about 1 mg

## CCC(=O)O[C@H]1CC[C@H]2[C@@H]3CCC4=CC(=O)CC[C@]4(C)[C@H]3CC[C@]12C [TP, Testosterone Propionate, reference compound]
[1]; TP versus free T, immature castrated rats
  potency relative to free T: 10-30 fold
[1]; immature castrated rats
  EC50 (increase in organ weight, VP and SV): ~0.03 mg
